Assay results reported in the supplement of paper PMC12420376.

What was measured:
Assay in all cases: cell viability relative to untreated control (ex vivo patient spheroids); higher = less cytotoxic
Conditions in all cases: 72 h
Gem015 = tested on: Gem015 (ex vivo spheroids of an HRD-positive high-grade serous ovarian cancer)
Protocol: (§1)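 Ex vivo 3D spheroid cultures from dissociated tumours of HGSOC patients (DET3CT platform) were treated for 72 h with dose matrices of carboplatin combined with birinapant or vorinostat (nM). Live (TMRM) and dead (POPO-1) cells were imaged and viability was expressed as % of untreated control.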

Gem031 = tested on: Gem031 (ex vivo spheroids of an HRD-negative high-grade serous ovarian cancer)
Protocol: as §1

Gem059 = tested on: Gem059 (ex vivo spheroids of an HRD-negative high-grade serous ovarian cancer)
Protocol: as §1

Gem105 = tested on: Gem105 (ex vivo spheroids of an HRD-negative high-grade serous ovarian cancer)
Protocol: as §1

Gem129 = tested on: Gem129 (ex vivo spheroids of an HRD-positive high-grade serous ovarian cancer)
Protocol: as §1

O=C(O)C1(C(=O)O)CCC1.[NH2-].[NH2-].[Pt+2] [Carboplatin] + O=C(CCCCCCC(=O)Nc1ccccc1)NO [Vorinostat]
cell viability [%]
Conditions	partner drug concentration 0 nM	partner drug concentration 1 nM	partner drug concentration 10 nM	partner drug concentration 100 nM	partner drug concentration 1000 nM	partner drug concentration 10000 nM
Gem015, carboplatin concentration 10 nM	85.7	100	97.5	97.6	76.3	35.6
Gem015, carboplatin concentration 100 nM	97.2	94.2	92.8	93.8	79.3	37.7
Gem015, carboplatin concentration 1000 nM	88.1	96.2	91.6	91.3	71.6	36.2
Gem015, carboplatin concentration 10000 nM	91.1	84.9	97.1	95.6	77.2	36.1
Gem015, carboplatin concentration 100000 nM	61.2	71.2	77.1	74.6	63.5	32.3
Gem031, carboplatin concentration 10 nM	87.9	97.2	94	90.4	85.1	89.4
Gem031, carboplatin concentration 100 nM	110	97.1	101	95.1	92.6	98.7
Gem031, carboplatin concentration 1000 nM	88	96.9	104	100	93.3	64.1
Gem031, carboplatin concentration 10000 nM	79.2	97.2	90.6	92.2	78.4	38.7
Gem031, carboplatin concentration 100000 nM	26.3	31.4	30.1	22.9	16.9	14.6
Gem059, carboplatin concentration 10 nM	109	99.3	91.5	110	103	86.5
Gem059, carboplatin concentration 100 nM	107	102	105	114	102	95.8
Gem059, carboplatin concentration 1000 nM	91.5	107	104	96.5	110	94.4
Gem059, carboplatin concentration 10000 nM	100	103	116	101	114	95
Gem059, carboplatin concentration 100000 nM	77.4	81.7	81.9	71.5	85	71.2
Gem105, carboplatin concentration 10 nM	105	82.6	99.6	94.3	86.4	33.3
Gem105, carboplatin concentration 100 nM	103	90.7	96.2	93.6	84.9	34.5
Gem105, carboplatin concentration 1000 nM	89.2	102	93.5	112	84.8	39.9
Gem105, carboplatin concentration 10000 nM	91.9	105	93.4	100	79.4	36
Gem105, carboplatin concentration 100000 nM	38.7	52.6	54	53.8	31.9	10.5
Gem129, carboplatin concentration 10 nM	95.8	104	37.5	107	87.6	80.2
Gem129, carboplatin concentration 100 nM	82.8	104	102	97.6	91.9	77.7
Gem129, carboplatin concentration 1000 nM	86	109	108	98.1	81.2	77.3
Gem129, carboplatin concentration 10000 nM	80.4	97.8	90.4	90.4	87.5	59.6
Gem129, carboplatin concentration 100000 nM	57.5	35.8	41.7	33.9	25.8	3.4
